Measured values taken from publication PMC11968987 (Nature Communications, 2025).

Biological target: SAT1 (flag-tagged recombinant SAT1) (Homo sapiens, UniProt P21673)
Assay: DTNB-coupled SAT1 activity assay, Lineweaver-Burk plot
Assay type: biochemical
Conditions: co-substrate histone H3 (200 ng); pH 8.0, 35 °C; no ginkgolide B

SAT1 (flag-tagged recombinant SAT1), sequence (P21673 whole entry): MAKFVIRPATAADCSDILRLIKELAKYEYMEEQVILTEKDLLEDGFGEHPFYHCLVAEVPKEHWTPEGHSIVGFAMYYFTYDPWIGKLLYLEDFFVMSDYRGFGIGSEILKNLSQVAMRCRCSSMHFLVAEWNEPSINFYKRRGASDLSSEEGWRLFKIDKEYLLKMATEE

CC(=O)SCCNC(=O)CCNC(=O)[C@H](O)C(C)(C)COP(=O)(O)OP(=O)(O)OC[C@H]1O[C@@H](n2cnc3c(N)ncnc32)[C@H](O)[C@@H]1OP(=O)(O)O [acetyl-CoA] was tested, and the km was “Both the Vmax and km values decreased with the addition of GB”.
